Reference: patent US12599592B2, “Therapeutic small molecules for treatment of pulmonary hypertension” (UNIVERSITY OF PITTSBURGH—OF THE COMMONWEALTH SYSTEM OF …, priority 2020, dated 2026)

Tested on: glutathionylated ISCU
Assay: ISCU glutathionylation by immunoprecipitation and immunoblot in PAECs
Assay type: cell-based, human
Conditions: hypoxic PAECs, BRD2889 1 mM, 24 h
Description: Protein stability assay: The proteasome inhibitor MG132 (M7449, Sigma) was stored at −20° C. at a concentration of 10 mM diluted in dimethyl sulfoxide (DMSO). PAECs were exposed to MG132 ([…]) vs. DMSO vehicle control for 2 hr under hypoxia, prior to harvesting of cellular lysate for immunoblotting.
Immunoblot and densitometry: Cells were lysed in RIPA buffer (Sigma) along with 1× protease inhibitor cocktail (Sigma). Protein lysate was resolved by gradient 4%-15% SDS-PAGE gels and transferred onto a 0.2 μm PVDF membrane (Bio-Rad). Membranes were blocked in 5% non-fat milk in 1×PBST buffer for one hour at room temperature. Later, they were incubated in the presence of the primary antibody overnight at 4° C. and then appropriate HRP-conjugated secondary antibodies (Life Technologies). […] The images were later quantified using AlphaEaseFC software (Alpha Innotech).
Immunoprecipitation: PAECs were transfected with the indicated combinations of siRNAs by Lipofectamine 2000 (Thermo Fisher Scientific) according to the manufacturer's instructions and/or treated with BRD2889 ([…], 24 h). […] After extensive washing, the immunoprecipitated proteins were analyzed by immunoblotting with the indicated antibodies.

COc1ccc(C#CC2CCCN(C(=O)/C=C/c3cc(OC)c(OC)c(OC)c3)C2=O)cc1 (stereo not shown) [BRD2889]
ISCU glutathionylation (α-GSH immunoblot after α-ISCU pulldown): converse reduction of glutathionylation
